Experimental data from ChEMBL document CHEMBL4350964, “Discovery of the theobromine derivative MQS-14 that induces death of MGC-803 cells mainly through ROS-mediated mechanisms” (Eur J Med Chem, 2019).
The source made the active and inactive calls. No cut-off for these calls is given here.

Assays:
MGC-803 [1] = assay: Cytotoxicity against human MGC803 cells assessed as growth inhibition at 20 uM after 48 hrs by MTT assay relative to control; type: functional; conditions: MGC-803, 48 h
MGC-803 [2] = assay: Cytotoxicity against human MGC803 cells assessed as reduction in cell viability by MTT assay; type: functional, cell-based
SGC-7901 = assay: Cytotoxicity against human SGC7901 cells assessed as reduction in cell viability by MTT assay; type: functional, cell-based
HGC-27 = assay: Cytotoxicity against human HGC27 cells assessed as reduction in cell viability by MTT assay; type: functional, cell-based
GES1 = assay: Cytotoxicity against human GES-1 cells assessed as reduction in cell viability by MTT assay; type: cell-based
[3] = Selectivity ratio of IC50 for human GES-1 cells to IC50 for human MGC803 cells; type: toxicity; conditions: GES-1 cells and MGC803 cells, read-out: Ratio IC50
Homo sapiens [4] = species: Homo sapiens; assay: Activation of MAPK signalling in human MGC803 cells assessed as increase in JNK phosphorylation at 6 uM measured after 24 hrs in presence of NAC by Western blot analysis; type: cell-based
MGC-803 [5] = assay: Antiproliferative activity against human MGC803 cells assessed as inhibition of cell proliferation preincubated for 16 hrs followed by Edu addition and measured after 8 hrs by Hoechst 33342 staining-based confocal laser scanning microscopic analysis; type: functional
MGC-803 [6] = assay: Effect on Cleaved PARP level in human MGC803 cells assessed decrease in cleaved PARP expression at 6 uM after 24 hrs in presence of NAC by Western blot analysis; type: functional, cell-based
MGC-803 [7] = assay: Effect on Cleaved caspase-9 level in human MGC803 cells assessed decrease in cleaved caspase-9 expression at 6 uM after 24 hrs in presence of NAC by Western blot analysis; type: functional, cell-based
MGC-803 [8] = assay: Induction of apoptosis in human MGC803 cells assessed as viable cells at 6 uM after 24 hrs by Annexin-V-FITC/propidium iodide staining based flow cytometry (reference value: 90.4%); type: functional; conditions: MGC-803, 24 h, read-out: Activity
MGC-803 [9] = assay: Induction of DNA damage in human MGC803 cells assessed as formation of DNA long tailing at 6 uM by comet assay; type: functional, cell-based
MGC-803 [10] = assay: Induction of apoptosis in human MGC803 cells assessed as increase in cleaved caspase-9 expression up to 9 uM after 24 hrs by Western blot analysis; type: functional, cell-based
MGC-803 [11] = assay: Induction of apoptosis in human MGC803 cells assessed as early apoptotic cells at 3 uM after 24 hrs by Annexin-V-FITC/propidium iodide staining based flow cytometry (reference value: 6.4%); type: functional
MGC-803 [12] = assay: Induction of DNA damage in human MGC803 cells assessed as formation of DNA long tailing at 6 uM in presence of NAC by comet assay; type: functional, cell-based
MGC-803 [13] = assay: Induction of apoptosis in human MGC803 cells assessed as early apoptotic cells at 6 uM after 24 hrs by Annexin-V-FITC/propidium iodide staining based flow cytometry (reference value: 6.4%); type: functional
MGC-803 [14] = assay: Induction of apoptosis in human MGC803 cells assessed as increase in cleaved caspase-7 expression up to 9 uM after 24 hrs by Western blot analysis; type: functional, cell-based
Homo sapiens [15] = species: Homo sapiens; assay: Activation of MAPK signalling in human MGC803 cells assessed as increase in JNK phosphorylation at 3 to 6 uM after 24 hrs by Western blot analysis; type: cell-based
MGC-803 [16] = assay: Induction of apoptosis in human MGC803 cells assessed as viable cells at 9 uM after 24 hrs by Annexin-V-FITC/propidium iodide staining based flow cytometry (reference value: 90.4%); type: functional; conditions: MGC-803, 24 h, read-out: Activity
MGC-803 [17] = assay: Induction of apoptosis in human MGC803 cells assessed as necrotic cells at 6 uM after 24 hrs by Annexin-V-FITC/propidium iodide staining based flow cytometry (reference value: 1.5%); type: functional
MGC-803 [18] = assay: Induction of apoptosis in human MGC803 cells assessed as viable cells at 3 uM after 24 hrs by Annexin-V-FITC/propidium iodide staining based flow cytometry (reference value: 90.4%); type: functional; conditions: MGC-803, 24 h, read-out: Activity
MGC-803 [19] = assay: Cytotoxicity in human MGC803 cells assessed as cell viability at 6 uM after 24 hrs by MTT assay relative to control; type: functional; conditions: MGC-803, 24 h, read-out: Activity
MGC-803 [20] = assay: Induction of apoptosis in human MGC803 cells assessed as late apoptotic cells at 6 uM after 24 hrs by Annexin-V-FITC/propidium iodide staining based flow cytometry (reference value: 1.8%); type: functional
MGC-803 [21] = assay: Induction of apoptosis in human MGC803 cells assessed as early apoptotic cells at 9 uM after 24 hrs by Annexin-V-FITC/propidium iodide staining based flow cytometry (reference value: 6.4%); type: functional
Homo sapiens [22] = species: Homo sapiens; assay: Activation of MAPK signalling in human MGC803 cells assessed as decrease in ERK phosphorylation at 3 to 6 uM after 24 hrs by Western blot analysis; type: cell-based
Homo sapiens [23] = species: Homo sapiens; assay: Activation of MAPK signalling in human MGC803 cells assessed as decrease in ERK phosphorylation measured after 24 hrs in presence of NAC by Western blot analysis; type: cell-based
MGC-803 [24] = assay: Induction of apoptosis in human MGC803 cells assessed as late apoptotic cells at 3 uM after 24 hrs by Annexin-V-FITC/propidium iodide staining based flow cytometry (reference value: 1.8%); type: functional
MGC-803 [25] = assay: Cytotoxicity against human MGC803 cells assessed as reduction in cell viability at 6 uM after 24 hrs in presence of ROS scavenger N-acetyl-L-cysteine by MTT assay; type: functional, cell-based
MGC-803 [26] = assay: Antiproliferative activity against human MGC803 cells assessed as inhibition of cell division measured after 24 hrs by CFDA-SE staining based flow cytometric analysis; type: functional
MGC-803 [27] = assay: Induction of apoptosis in human MGC803 cells assessed as increase in cleaved caspase-3 expression up to 9 uM after 24 hrs by Western blot analysis; type: functional, cell-based
MGC-803 [28] = assay: Induction of apoptosis in human MGC803 cells assessed as necrotic cells at 9 uM after 24 hrs by Annexin-V-FITC/propidium iodide staining based flow cytometry (reference value: 1.5%); type: functional
MGC-803 [29] = assay: Induction of apoptosis in human MGC803 cells assessed as increase in cleaved PARP expression up to 9 uM after 24 hrs by Western blot analysis; type: functional, cell-based
MGC-803 [30] = assay: Induction of apoptosis in human MGC803 cells assessed as necrotic cells at 3 uM after 24 hrs by Annexin-V-FITC/propidium iodide staining based flow cytometry (reference value: 1.5%); type: functional
MGC-803 [31] = assay: Cytotoxicity in human MGC803 cells assessed as cell viability at 6 uM pretreated with pan-caspase inhibitor Z-VAD-fmk for 1 hr followed by compound addition and measured after 24 hrs by MTT assay relative to control; type: functional; conditions: read-out: Activity
Homo sapiens [32] = species: Homo sapiens; assay: Activation of MAPK signalling in human MGC803 cells assessed as change in p38 phosphorylation at 3 to 6 uM after 24 hrs by Western blot analysis; type: cell-based
MGC-803 [33] = assay: Induction of apoptosis in human MGC803 cells assessed as late apoptotic cells at 9 uM after 24 hrs by Annexin-V-FITC/propidium iodide staining based flow cytometry (reference value: 1.8%); type: functional
MGC-803 [34] = assay: Effect on Cleaved caspase-7 level in human MGC803 cells assessed decrease in cleaved caspase-7 expression at 6 uM after 24 hrs in presence of NAC by Western blot analysis; type: functional, cell-based
MGC-803 [35] = assay: Induction of ROS generation in human MGC803 cells after 24 hrs by DCFH-DA dye based flow cytometry; type: functional, cell-based
MGC-803 [36] = assay: Induction of mitochondrial dysfunction in human MGC803 cells assessed as reduction in mitochondrial potential at 3 to 9 uM after 24 hrs by JC-1 staining based flow cytometry; type: functional, cell-based

CCCn1c(SCC(=O)Nc2ccc(C)cc2)nc2c1c(=O)[nH]c(=O)n2C
inhibition at 20 µM (MGC-803 [1]): 42.2%

CCCn1c(SCc2ccc([N+](=O)[O-])cc2)nc2c1c(=O)[nH]c(=O)n2C
inhibition at 20 µM (MGC-803 [1]): 19.8%

Cn1cnc2c1c(=O)n(CC(=O)N1CCN(C(=O)/C=C/c3ccccc3)CC1)c(=O)n2C
inhibition at 20 µM (MGC-803 [1]): 9.5%

CCCn1c(SCc2ccc(C(C)(C)C)cc2)nc2c1c(=O)[nH]c(=O)n2C
inhibition at 20 µM (MGC-803 [1]): 10.3%

Cn1cnc2c1c(=O)n(CC(=O)N1CCOCC1)c(=O)n2C
inhibition at 20 µM (MGC-803 [1]): 19.9%

Cn1cnc2c1c(=O)n(CC(=O)O)c(=O)n2C
inhibition at 20 µM (MGC-803 [1]): 0.8%

O=c1[nH]cc(F)c(=O)[nH]1 [FLUOROURACIL]
IC50 (MGC-803 [2]): 14 µM
IC50 (SGC-7901): 21 µM
IC50 (HGC-27): 18 µM

C=CCSc1nc2c(c(=O)[nH]c(=O)n2C)n1CCC
inhibition at 20 µM (MGC-803 [1]): 5.5%

CCCn1c(SCc2cccc(OC)c2)nc2c1c(=O)[nH]c(=O)n2C
inhibition at 20 µM (MGC-803 [1]): 34.2%

C=CC(=O)N1CCN(C(=O)Cn2c(=O)c3c(ncn3C)n(C)c2=O)CC1
inhibition at 20 µM (MGC-803 [1]): 1.3%

Cn1cnc2c1c(=O)n(CC(=O)N1CCC(N3CCCCC3)CC1)c(=O)n2C
inhibition at 20 µM (MGC-803 [1]): 19.8%

Cc1ccc(S(=O)(=O)N2CCN(C(=O)Cn3c(=O)c4c(ncn4C)n(C)c3=O)CC2)cc1
inhibition at 20 µM (MGC-803 [1]): 20.1%

Cn1cnc2c1c(=O)n(CC(=O)N1CCC(F)(F)CC1)c(=O)n2C
inhibition at 20 µM (MGC-803 [1]): 11.3%

CCCn1c(SCc2cccc(C)c2)nc2c1c(=O)[nH]c(=O)n2C
IC50 (MGC-803 [2]): 7.2 µM
IC50 (SGC-7901): 16 µM
IC50 (HGC-27): 10 µM
inhibition at 20 µM (MGC-803 [1]): 84.1%
IC50 (GES1): 16 µM
selectivity ratio [3]: 2 to 3

Cn1cnc2c1c(=O)n(CC(=O)N1CCSCC1)c(=O)n2C
inhibition at 20 µM (MGC-803 [1]): 5.6%

Cn1cnc2c1c(=O)n(CC(=O)N1CCN(c3ccccc3)CC1)c(=O)n2C
inhibition at 20 µM (MGC-803 [1]): 4.6%

CN1CCN(C(=O)Cn2c(=O)c3c(ncn3C)n(C)c2=O)CC1
inhibition at 20 µM (MGC-803 [1]): 8.6%

CCCn1c(SCc2ccccc2C)nc2c1c(=O)[nH]c(=O)n2C
Activity (Homo sapiens [4]): inactive
inhibition (MGC-803 [5]): Dose-dependent effect
Activity (MGC-803 [6]): Active
Activity (MGC-803 [7]): Active
viability at 6 µM (MGC-803 [8]): 55%
Activity (MGC-803 [9]): Active
Activity (MGC-803 [10]): Active
Activity (MGC-803 [11]): 25.4%
Activity (MGC-803 [12]): inactive
Activity (MGC-803 [13]): 41.9%
Activity (MGC-803 [14]): Active
Activity (Homo sapiens [15]): Active
viability at 9 µM (MGC-803 [16]): 23.1%
Activity (MGC-803 [17]): 0.7%
viability at 3 µM (MGC-803 [18]): 71.5%
viability at 6 µM (MGC-803 [19]): 66%
Activity (MGC-803 [20]): 2.4%
IC50 (MGC-803 [2]): 6.6 µM
Activity (MGC-803 [21]): 44%
Activity (Homo sapiens [22]): Dose-dependent effect
Activity (Homo sapiens [23]): inactive
Activity (MGC-803 [24]): 1.7%
Activity (MGC-803 [25]): inactive
inhibition (MGC-803 [26]): Dose-dependent effect
IC50 (SGC-7901): 15 µM
Activity (MGC-803 [27]): Active
Activity (MGC-803 [28]): 0.9%
IC50 (HGC-27): 9.1 µM
Activity (MGC-803 [29]): Active
inhibition at 20 µM (MGC-803 [1]): 88.6%
Activity (MGC-803 [30]): 1.5%
viability at 6 µM (MGC-803 [31]): 93%
Activity (Homo sapiens [32]): Active
Activity (MGC-803 [33]): 32%
Activity (MGC-803 [34]): Active
Activity (MGC-803 [35]): Dose-dependent effect
Activity (MGC-803 [36]): Dose-dependent effect
IC50 (GES1): 13 µM
selectivity ratio [3]: 2 to 3

CCCn1c(SCc2ccc(F)cc2)nc2c1c(=O)[nH]c(=O)n2C
IC50 (MGC-803 [2]): 5.4 µM
IC50 (SGC-7901): 15 µM
IC50 (HGC-27): 9.7 µM
inhibition at 20 µM (MGC-803 [1]): 86.5%
IC50 (GES1): 14 µM
selectivity ratio [3]: 2 to 3

Cn1cnc2c1c(=O)n(CC(=O)N1CCCCC1)c(=O)n2C
inhibition at 20 µM (MGC-803 [1]): 16.8%

C#CCN1CCN(C(=O)Cn2c(=O)c3c(ncn3C)n(C)c2=O)CC1
inhibition at 20 µM (MGC-803 [1]): 14.1%

Cn1cnc2c1c(=O)n(CC(=O)N1CCN(C(=O)OC(C)(C)C)CC1)c(=O)n2C
inhibition at 20 µM (MGC-803 [1]): 20%

Cn1cnc2c1c(=O)n(CC(=O)N1CCN(Cc3ccc(Cl)cc3)CC1)c(=O)n2C
inhibition at 20 µM (MGC-803 [1]): 22.5%

Cn1cnc2c1c(=O)n(CC(=O)OC(C)(C)C)c(=O)n2C
inhibition at 20 µM (MGC-803 [1]): 17.2%
